This is an account of results in patent US10251889B2, “Substituted pyrazolo[1,5-a]pyrimidine compounds as Trk kinase inhibitors” (Array BioPharma, Inc., priority 2009, dated 2019).

Structures can show the parent of a compound that is named as a salt.

The target in one assay is Jak2 (human Jak2 kinase domain, amino acids 808-1132) (Homo sapiens (Human), UniProt O60674). In words: Jak2 inhibition assay (Omnia kinase assay). The assay is classed as biochemical. The conditions noted are these: read-out: Jak2 Enzyme (% inhibition at 1000 nM). The method, then: The assays described in Examples C, D, E and F for the determination of JAK1, JAK2, JAK3 and Tyk2 kinase activity, respectively, utilized the Omnia® Kinase fluorescence peptide substrate-based technology (Invitrogen). […] The reactions were therefore read at excitation 360 nm and emission was measured at 485 nm every 50 seconds for 45 minutes using a PerkinElmer EnVision Multilabel Plate Reader.
Sequence of Jak2 (human Jak2 kinase domain, amino acids 808-1132) (O60674 808-1132): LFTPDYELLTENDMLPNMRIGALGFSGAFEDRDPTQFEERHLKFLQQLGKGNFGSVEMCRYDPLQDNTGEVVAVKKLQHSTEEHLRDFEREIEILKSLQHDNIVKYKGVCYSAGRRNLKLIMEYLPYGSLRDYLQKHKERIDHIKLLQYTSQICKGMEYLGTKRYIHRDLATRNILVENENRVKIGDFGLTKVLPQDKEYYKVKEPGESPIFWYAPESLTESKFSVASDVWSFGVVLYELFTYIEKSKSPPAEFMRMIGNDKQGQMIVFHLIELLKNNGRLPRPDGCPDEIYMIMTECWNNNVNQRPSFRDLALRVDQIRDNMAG
The final buffer conditions for each of the JAK1, JAK2, JAK3 and Tyk2 assays were as follows: 25 mM HEPES, pH 7.4, 10 mM MgCl2, 0.01% Triton X-100 and 1 mM DTT.
Two-μL aliquots of these were transferred to a fresh plate for a ten-fold intermediate dilution with assay buffer. Five-μL aliquots of the diluted compounds were then transferred to 20-μL of assay mixtures described in Examples C, D, E and F for a final concentration of DMSO of 2%. […] For each plate, percent of control (POC) values were calculated for each well according to the following equation:
where Xmax=Average Uninhibited Controls • Xmin=Average Background IC50's were estimated from the POC's using a standard 4-parameter logistic model:
where A=Minimum Y (Bottom Asymptote) • B=Maximum Y (Top Asymptote) • C=EC50 • D=Slope Factor • X=Compound Concentration (nM) • Y=POC
The IC50 is defined as the concentration of inhibitor at which the POC equals 50 for the fitted curve.
Compounds of Formula I were screened for their ability to inhibit Jak2 using the general enzyme inhibition assay method, in which the assay mixture contained 500 μM ATP, 10 μM Omnia® Y7 peptide (Catalog # IVGN KNZ3071C, Invitrogen Corporation, Carlsbad, Calif.) and 4 nM Jak2 in a total volume of 20 μL. Human Jak2 kinase domain comprising amino acids 808-1132 was purchased from Invitrogen Corporation, Carlsbad, Calif. (catalog # IVGN PV4210).
In the case of `O=C(N[C@@H]1CCNC[C@@H]1F)c1cnn2ccc(N3CCC[C@@H]3c3cc(F)ccc3F)nc12` [Example 61, 5-((R)-2-(2,5-difluorophenyl)pyrrolidin-1-yl)-N-((3S,4R)-3-fluoropiperidin-4-yl)pyrazolo[1,5-a]pyrimidine-3-carboxamide Hydrochloride], the inhibition at 1 µM turned out to be 54.4%.

Staying with this assay, now noted: read-out: Jak2 Enzyme (% inhibition at 1000 nM), Table 1; 1000 nM test compound.
As for `O=C(NC[C@H](O)CO)c1cnn2ccc(N3CCC[C@@H]3c3cc(F)ccc3F)nc12` [Example 29, 5-((R)-2-(2,5-difluorophenyl)pyrrolidin-1-yl)-N—((S)-2,3-dihydroxypropyl)pyrazolo[1,5-a]pyrimidine-3-carboxamide], the inhibition at 1 µM worked out at 13.2%.

Regarding `CC1(O)CN(C(=O)c2cnn3ccc(N4CCC[C@@H]4c4cc(F)ccc4F)nc23)C1` [Example 32, (R)-(5-(2-(2,5-difluorophenyl)pyrrolidin-1-yl)pyrazolo[1,5-a]pyrimidin-3-yl)(3-hydroxy-3-methylazetidin-1-yl)methanone], the inhibition at 1 µM was found to be 8.6%.

For the molecule `O=C(N[C@H]1CC[C@H](C(=O)O)CC1)c1cnn2ccc(N3CCC[C@@H]3c3cc(F)ccc3F)nc12` [Example 33, Trans-4-(5-((R)-2-(2,5-difluorophenyl)pyrrolidin-1-yl)pyrazolo[1,5-a]pyrimidine-3-carboxamido)cyclohexanecarboxylic Acid], the inhibition at 1 µM is 99.9%.

With `COc1ccc(F)cc1[C@H]1CCCN1c1ccn2ncc(C(=O)N[C@H]3CC[C@H](O)CC3)c2n1` [Example 34, 5-((R)-2-(5-fluoro-2-methoxyphenyl)pyrrolidin-1-yl)-N-((trans)-4-hydroxycyclohexyl)pyrazolo[1,5-a]pyrimidine-3-carboxamide], the inhibition at 1 µM worked out at 96.9%.

As to `O=C(N[C@H]1CC[C@H](O)CC1)c1cnn2ccc(N3CCC[C@@H]3c3cccc(F)c3)nc12` [Example 35, 5-((R)-2-(3-fluorophenyl)pyrrolidin-1-yl)-N-((trans)-4-hydroxycyclohexyl)pyrazolo[1,5-a]pyrimidine-3-carboxamide], the inhibition at 1 µM amounted to 77.4%.

`CC(C)(C)NC(=O)c1cnn2ccc(N3CCC[C@@H]3c3cccc(F)c3)nc12` [Example 36, (R)—N-tert-butyl-5-(2-(3-fluorophenyl)pyrrolidin-1-yl)pyrazolo[1,5-a]pyrimidine-3-carboxamide]: the inhibition at 1 µM worked out at 22.2%.

As for `O=C(NC1CC1)c1cnn2ccc(N3CCC[C@@H]3c3cccc(F)c3)nc12` [Example 37, (R)—N-cyclopropyl-5-(2-(3-fluorophenyl)pyrrolidin-1-yl)pyrazolo[1,5-a]pyrimidine-3-carboxamide], the inhibition at 1 µM was 25%.

In the case of `CC(C)(C#N)NC(=O)c1cnn2ccc(N3CCC[C@@H]3c3cc(F)ccc3F)nc12` [Example 38, (R)—N-(2-cyanopropan-2-yl)-5-(2-(2,5-difluorophenyl)pyrrolidin-1-yl)pyrazolo[1,5-a]pyrimidine-3-carboxamide], the inhibition at 1 µM stood at 18.2%.

Regarding `N#CCNC(=O)c1cnn2ccc(N3CCC[C@@H]3c3cc(F)ccc3F)nc12` [Example 39, (R)—N-(cyanomethyl)-5-(2-(2,5-difluorophenyl)pyrrolidin-1-yl)pyrazolo[1,5-a]pyrimidine-3-carboxamide], the inhibition at 1 µM stood at 30.4%.

Take `CC(C)(CF)NC(=O)c1cnn2ccc(N3CCC[C@@H]3c3cc(F)ccc3F)nc12` [Example 40, (R)-5-(2-(2,5-difluorophenyl)pyrrolidin-1-yl)-N-(1-fluoro-2-methylpropan-2-yl)pyrazolo[1,5-a]pyrimidine-3-carboxamide]: the inhibition at 1 µM was found to be 41.4%.

Regarding `CC(C)(C)NC(=O)c1cnn2ccc(N3C[C@H](O)C[C@@H]3c3cccc(F)c3)nc12` [Example 42, N-tert-butyl-5-((2R,4R)-2-(3-fluorophenyl)-4-hydroxypyrrolidin-1-yl)pyrazolo[1,5-a]pyrimidine-3-carboxamide], the inhibition at 1 µM was 7.7%.

For `CNC(=O)c1cnn2ccc(N3C[C@H](O)C[C@@H]3c3cccc(F)c3)nc12` [Example 43, 5-((2R,4R)-2-(3-fluorophenyl)-4-hydroxypyrrolidin-1-yl)-N-methylpyrazolo[1,5-a]pyrimidine-3-carboxamide], the inhibition at 1 µM worked out at 4.2%.

For the molecule `CS(=O)(=O)N1CCC(NC(=O)c2cnn3ccc(N4CCC[C@@H]4c4cc(F)ccc4F)nc23)CC1` [Example 44, (R)-5-(2-(2,5-difluorophenyl)pyrrolidin-1-yl)-N-(1-(methylsulfonyl)piperidin-4-yl)pyrazolo[1,5-a]pyrimidine-3-carboxamide], the inhibition at 1 µM turned out to be 71.5%.

Turning to `NS(=O)(=O)N1CCC(NC(=O)c2cnn3ccc(N4CCC[C@@H]4c4cc(F)ccc4F)nc23)CC1` [Example 45, (R)-5-(2-(2,5-difluorophenyl)pyrrolidin-1-yl)-N-(1-sulfamoylpiperidin-4-yl)pyrazolo[1,5-a]pyrimidine-3-carboxamide], the inhibition at 1 µM amounted to 84%.

Turning to `CS(=O)(=O)NCCNC(=O)c1cnn2ccc(N3CCC[C@@H]3c3cc(F)ccc3F)nc12` [Example 46, (R)-5-(2-(2,5-difluorophenyl)pyrrolidin-1-yl)-N-(2-(methylsulfonamido)ethyl)pyrazolo[1,5-a]pyrimidine-3-carboxamide], the inhibition at 1 µM is 13.8%.

On to `NS(=O)(=O)CCNC(=O)c1cnn2ccc(N3CCC[C@@H]3c3cc(F)ccc3F)nc12` [Example 47, (R)-5-(2-(2,5-difluorophenyl)pyrrolidin-1-yl)-N-(2-sulfamoylethyl)pyrazolo[1,5-a]pyrimidine-3-carboxamide], for which the inhibition at 1 µM was found to be 37.3%.

Regarding `COc1ccc(F)cc1[C@H]1CCCN1c1ccn2ncc(C(=O)NC3CC3)c2n1` [Example 48, (R)—N-cyclopropyl-5-(2-(5-fluoro-2-methoxyphenyl)pyrrolidin-1-yl)pyrazolo[1,5-a]pyrimidine-3-carboxamide], the inhibition at 1 µM came to 72.7%.

Take `COc1ccc(F)cc1[C@H]1CCCN1c1ccn2ncc(C(=O)NCC(C)(C)O)c2n1` [Example 49, (R)-5-(2-(5-fluoro-2-methoxyphenyl)pyrrolidin-1-yl)-N-(2-hydroxy-2-methylpropyl)pyrazolo[1,5-a]pyrimidine-3-carboxamide]: the inhibition at 1 µM stood at 17.2%.

As to `CC(C)(C)NC(=O)c1cnn2ccc(N3CCC[C@@H]3c3cncc(F)c3)nc12` [Example 53, (R)—N-tert-butyl-5-(2-(5-fluoropyridin-3-yl)pyrrolidin-1-yl)pyrazolo[1,5-a]pyrimidine-3-carboxamide], the inhibition at 1 µM came to 8.7%.

`COc1ccc(F)cc1[C@H]1CCCN1c1ccn2ncc(C(=O)NCCN3CCOCC3)c2n1` [Example 54, (R)-5-(2-(5-fluoro-2-methoxyphenyl)pyrrolidin-1-yl)-N-(2-morpholinoethyl)pyrazolo[1,5-a]pyrimidine-3-carboxamide]: the inhibition at 1 µM was found to be 23%.

Regarding `COc1ccc(F)cc1[C@H]1CCCN1c1ccn2ncc(C(=O)NC[C@H](O)CO)c2n1` [Example 55, N—((S)-2,3-dihydroxypropyl)-5-((R)-2-(5-fluoro-2-methoxyphenyl)pyrrolidin-1-yl)pyrazolo[1,5-a]pyrimidine-3-carboxamide], the inhibition at 1 µM came to 24.1%.

As for `COc1ccc(F)cc1[C@H]1CCCN1c1ccn2ncc(C(=O)NC[C@@H](O)CO)c2n1` [Example 56, N—((R)-2,3-dihydroxypropyl)-5-((R)-2-(5-fluoro-2-methoxyphenyl)pyrrolidin-1-yl)pyrazolo[1,5-a]pyrimidine-3-carboxamide], the inhibition at 1 µM was found to be 28%.

`CC(C)(N)CNC(=O)c1cnn2ccc(N3CCC[C@@H]3c3cc(F)ccc3F)nc12` [Example 58, (R)—N-(2-amino-2-methylpropyl)-5-(2-(2,5-difluorophenyl)pyrrolidin-1-yl)pyrazolo[1,5-a]pyrimidine-3-carboxamide]: the inhibition at 1 µM was determined as 4.7%.

On to `O=C(NC[C@H](O)CO)c1cnn2ccc(N3CCC[C@@H]3c3cc(F)ccc3C(F)(F)F)nc12` [Example 62, N—((S)-2,3-dihydroxypropyl)-5-((R)-2-(5-fluoro-2-(trifluoromethyl)phenyl)pyrrolidin-1-yl)pyrazolo[1,5-a]pyrimidine-3-carboxamide], for which the inhibition at 1 µM was found to be 35.2%.

For the molecule `O=C(NC[C@@H](O)CO)c1cnn2ccc(N3CCC[C@@H]3c3cc(F)ccc3C(F)(F)F)nc12` [Example 63, N—((R)-2,3-dihydroxypropyl)-5-((R)-2-(5-fluoro-2-(trifluoromethyl)phenyl)pyrrolidin-1-yl)pyrazolo[1,5-a]pyrimidine-3-carboxamide], the inhibition at 1 µM was 33.1%.

On to `NC(=O)c1cnn2ccc(N3CCC[C@@H]3c3cc(F)ccc3C(F)(F)F)nc12` [Example 64, (R)-5-(2-(5-fluoro-2-(trifluoromethyl)phenyl)pyrrolidin-1-yl)pyrazolo[1,5-a]pyrimidine-3-carboxamide], for which the inhibition at 1 µM came out at 60.3%.

For orientation: inhibition means the share of the control response that was lost under treatment.
